Experimental data: publication PMC5106240 (Drug Design, Development and Therapy, 2016)

Legend:
Type in all cases: in vivo, Wistar rats
MES-induced convulsions = assay: MES-induced seizure model; conditions: rats, 10 mg/kg IP, vs saline-treated group
PTZ-induced convulsions = assay: PTZ-induced seizure model; conditions: rats
STR-induced convulsions = assay: STR-induced seizure model; conditions: rats, 10, 20, 30 minutes observation
[1] = 10 mg/kg IP, 30 minutes before PTZ 60 mg/kg IP, 10, 20, 30 minutes observation

SMILES	Protective effect on MES-induced convulsions (duration of THLE) (MES-induced convulsions)	Protective effect on PTZ-induced convulsions (convulsion score) (PTZ-induced convulsions; [1])	Protective effect on PTZ-induced convulsions (convulsion score) (PTZ-induced convulsions; 10 and 15 mg/kg IP, 10, 20, 30 minutes)	Protective effect on STR-induced convulsions (convulsion score) (STR-induced convulsions; 10 mg/kg IP, 30 minutes before STR 3.5 mg/kg IP)	Protective effect on PTZ-induced convulsions (convulsion score) (PTZ-induced convulsions; 100 mg/kg IP, 10, 20, 30 minutes observation)	Protective effect on STR-induced convulsions (convulsion score) (STR-induced convulsions; 300 mg/kg IP)
O=C1NC(=O)C(c2ccccc2)(c2ccc(OCCCN3CCCCC3)cc2)N1 (centres unmarked) [Compound 6, 5-Phenyl-5-(4-(3-(piperidin-1-yl)propoxy)phenyl) imidazolidine-2,4-dione]	failed to provide significant protection	full protection	significant and full protective effect	–	–	–
O=C1NC(=O)C(c2ccccc2)(c2ccccc2)N1 [PHT, Phenytoin]	fully	–	–	–	–	–
Clc1ccc(CCCOCCCN2CCCCC2)cc1 [PIT, pitolisant]	moderately protected	failed to provide protection	–	failed to provide protection	–	–
C[C@@H](N)Cc1cnc[nH]1 [RAMH, R-(α)-methyl-histamine]	did not affect MES-induced seizures	did not affect convulsion score	–	–	–	–
CCCC(CCC)C(=O)O [VPA, valproic acid]	–	–	–	–	significant protection	significant protection
